Results as given in publication PMC11859905, “Flavonoids as Potential Modulators of Pancreatic Lipase Catalytic Activity” (Pharmaceutics, 2025).
Read-outs that look alike come from different tables or passages of the source.

Assays:
[1] = target: T1, porcine pancreatic lipase (Sus scrofa, UniProt P00591); experiment: Inhibition kinetics of porcine pancreatic lipase (nonlinear regression, Solver); format: biochemical; design: compare it to the effects of the porcine pancreas (type II, EC 3.1.1.3); from tissue; host or cells: porcine pancreas (type II preparation); conditions: for Inhibition Model / Ki / Vmax: porcine pancreatic lipase; for Ki / Vmax: ± SEM; for Vmax: in µmol/min
T1 sequence (P00591 1-450): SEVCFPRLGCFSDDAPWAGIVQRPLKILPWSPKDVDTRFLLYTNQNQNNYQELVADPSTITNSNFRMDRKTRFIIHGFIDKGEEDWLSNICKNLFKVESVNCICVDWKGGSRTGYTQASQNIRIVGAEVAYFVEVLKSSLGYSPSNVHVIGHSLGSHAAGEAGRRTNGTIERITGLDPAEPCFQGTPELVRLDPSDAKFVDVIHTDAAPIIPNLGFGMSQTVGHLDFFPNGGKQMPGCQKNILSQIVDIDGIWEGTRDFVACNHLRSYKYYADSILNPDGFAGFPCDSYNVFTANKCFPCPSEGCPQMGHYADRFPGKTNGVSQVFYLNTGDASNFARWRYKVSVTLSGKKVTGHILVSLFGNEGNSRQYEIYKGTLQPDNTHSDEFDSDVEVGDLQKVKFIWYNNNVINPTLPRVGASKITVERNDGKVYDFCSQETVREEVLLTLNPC

human pancreatic lipase [2] = target: T2, human pancreatic lipase (Homo sapiens, UniProt P16233); experiment: In vitro assay using human pancreatic lipase (4-MUO hydrolysis, fluorometric); format: biochemical; conditions: for IC50: human PL 2 U/mL, 4-MUO 0.05 mM, mean ± SEM;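 as to all read-outs here: Read-out is the initial rate of fluorescent 4-MU release as HPL cleaves the 4-MUO substrate, a rate that scales with the amount of enzyme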
T2 construct: PL from the human pancreas (triacylglycerol acyl hydrolase, EC 3.1.1.3); from tissue; host or cells: human pancreas
T2 sequence (P16233 17-465): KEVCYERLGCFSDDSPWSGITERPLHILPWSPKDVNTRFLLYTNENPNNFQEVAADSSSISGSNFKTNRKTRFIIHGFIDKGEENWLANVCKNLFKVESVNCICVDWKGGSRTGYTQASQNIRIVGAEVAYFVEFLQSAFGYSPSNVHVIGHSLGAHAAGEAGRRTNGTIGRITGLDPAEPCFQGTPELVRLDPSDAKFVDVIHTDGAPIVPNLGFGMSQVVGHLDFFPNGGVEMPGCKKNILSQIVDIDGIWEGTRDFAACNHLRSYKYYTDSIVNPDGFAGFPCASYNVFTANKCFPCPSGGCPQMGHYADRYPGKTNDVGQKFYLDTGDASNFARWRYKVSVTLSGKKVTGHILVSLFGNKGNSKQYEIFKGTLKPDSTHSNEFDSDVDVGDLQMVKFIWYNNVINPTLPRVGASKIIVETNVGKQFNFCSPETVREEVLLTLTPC

[3] = target: T1, porcine pancreatic lipase; experiment: In vitro assay using porcine pancreatic lipase (4-MUO hydrolysis, fluorometric);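 also: product 4-methylumbeliferone formation tracked fluorometrically, catalytic rate from RFU slope over the 10–30 min window, compounds checked beforehand for own fluorescence, at least three independent experiments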
human pancreatic lipase [4] = target: T2, human pancreatic lipase; experiment: Inhibition kinetics of human pancreatic lipase (nonlinear regression, Solver); format: biochemical
[5] = target: T1, porcine pancreatic lipase; design: compare it to the effects of the porcine pancreas (type II, EC 3.1.1.3); from tissue; host or cells: porcine pancreas (type II preparation); conditions: not calculated in this paper; cited from earlier work
[6] = competitive constant, read-out: Kic

Inhibition Model [1]	Ki [1, 6]	Vmax [1]	inhibition at 100 µM (human pancreatic lipase [2]; at 100 μM, read-out: PL Inhibition (%) ± SEM, Human)	IC50 [3]	binding affinity to PPL, times higher than the other compounds (from Kic) ([1]; versus 38, 27 and 41)	Ki (human pancreatic lipase [4]; human pancreatic lipase, first Kic column of Table 4, ± SEM)	Vmax (human pancreatic lipase [4]; human pancreatic lipase, ± SEM)	potency against HPL from Kic, times higher than 38 (myricetin) (human pancreatic lipase [4]; versus 38)	SMILES	Ki ([1]; uncompetitive constant, read-out: Kiu)	IC50 (human pancreatic lipase [2])	Inhibition Model (human pancreatic lipase [4]; human pancreatic lipase)	type of PL inhibition [5]
Competitive	21 ± 3 µM	680 ± 7	< 30%	32 ± 4 µM	–	–	–	–	O=C(O[C@@H]1Cc2c(O)cc(O)cc2O[C@@H]1c1cc(O)c(O)c(O)c1)c1cc(O)c(O)c(O)c1 [Flavonoid 41, (–)-Epigallocatechin gallate]	–	–	–	–
–	–	–	–	–	–	–	–	–	CCCCCCCCCCC[C@@H](C[C@@H]1OC(=O)[C@H]1CCCCCC)OC(=O)[C@H](CC(C)C)NC=O [Orlistat]	–	–	–	irreversible
Competitive	1.78 ± 0.04 µM	507 ± 4	–	7.3 ± 0.6 µM	approximately 10	1.3 ± 0.3 µM	260 ± 10	approximately 60	CCCCCCCCCCc1c(-c2ccc(O)c(O)c2)oc2cc(O)cc(O)c2c1=O [Flavonoid 30]	–	3.2 ± 0.1 µM	mixed-type	–

SMILES	Inhibition Model [1]	Ki [1, 6]	Vmax [1]	inhibition at 100 µM (human pancreatic lipase [2]; at 100 μM, read-out: PL Inhibition (%) ± SEM, Human)	IC50 [3]	binding affinity to PPL, times higher than the other compounds (from Kic) ([1]; versus 38, 27 and 41)	Ki (human pancreatic lipase [4]; human pancreatic lipase, first Kic column of Table 4, ± SEM)	Vmax (human pancreatic lipase [4]; human pancreatic lipase, ± SEM)	potency against HPL from Kic, times higher than 38 (myricetin) (human pancreatic lipase [4]; versus 38)	Ki ([1]; uncompetitive constant, read-out: Kiu)	IC50 (human pancreatic lipase [2])	Inhibition Model (human pancreatic lipase [4]; human pancreatic lipase)	type of PL inhibition [5]
O=c1c(O)c(-c2cc(O)c(O)c(O)c2)oc2cc(O)cc(O)c12 [Flavonoid 38, Myricetin]	–	12 ± 0.8 µM	–	–	16 ± 1 µM	–	–	–	–	58 ± 3 µM	25 ± 2 µM	Noncompetitive	–
